Measured values: patent publication US7176281B2 (priority 2003, dated 2007)
Where a SMILES comes first, the peptide text is derived from it.

Biological target: T1, Group IIA purified human synovial sPLA2 (Homo sapiens, UniProt P14555)
T1 construct: purchased Cayman, USA
T1 sequence (P14555 21-144): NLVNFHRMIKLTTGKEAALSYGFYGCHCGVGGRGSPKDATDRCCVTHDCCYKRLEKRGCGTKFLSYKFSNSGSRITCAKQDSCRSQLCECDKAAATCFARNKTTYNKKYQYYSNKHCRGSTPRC
Test: In vitro inhibition of purified human synovial sPLA2, 3H-labelled E. coli membranes
Assay type: biochemical
Conditions: for inhibition at 5 µM / Mean % Inhibition: fixed peptide concentration 5 μM

[1] = 3H-labelled E. coli membranes as substrate
[2] = purified human synovial sPLA2 (Cayman)

CC[C@H](C)[C@H](NC(=O)[C@H](CCC(=O)O)NC(=O)[C@@H](N)C(C)C)C(=O)N[C@@H](Cc1c[nH]cn1)C(=O)N[C@H](C(=O)N[C@@H](Cc1c[nH]c2ccccc12)C(=O)N[C@@H](CCC(=O)O)C(=O)NCC(=O)N[C@H](C(=O)O)C(C)C)C(C)C [D60, 65E-PIP (59–67)] (H-VEIHVWEGV-OH; N-terminus and C-terminus assumed)
IC50 [1]: 4.2 µM

CC[C@H](C)[C@H](NC(=O)[C@H](CC(=O)O)NC(=O)[C@@H](N)C(C)C)C(=O)N[C@@H](Cc1cnc[nH]1)C(=O)N[C@H](C(=O)N[C@@H](Cc1c[nH]c2ccccc12)C(=O)N[C@@H](C)C(=O)NCC(=O)N[C@H](C(=O)O)C(C)C)C(C)C [D65A-PIP (59–67)] (H-VDIHVWAGV-OH)
IC50 [1]: 5.45 µM

CC[C@H](C)[C@H](NC(=O)[C@H](CC(=O)O)NC(=O)[C@@H](N)C(C)C)C(=O)N[C@@H](Cc1cnc[nH]1)C(=O)N[C@H](C(=O)N[C@@H](Cc1c[nH]c2ccccc12)C(=O)N[C@@H](CCC(=O)O)C(=O)NCC(=O)N[C@H](C(=O)O)C(C)C)C(C)C [D65E-PIP (59–67)] (H-VDIHVWEGV-OH)
IC50 [1]: 4.95 µM

CC[C@H](C)[C@H](NC(=O)[C@H](CC(=O)O)NC(=O)[C@@H](N)C(C)C)C(=O)N[C@@H](Cc1cnc[nH]1)C(=O)N[C@H](C(=O)N[C@@H](Cc1c[nH]c2ccccc12)C(=O)N[C@@H](CO)C(=O)NCC(=O)N[C@H](C(=O)O)C(C)C)C(C)C [D65S-PIP (59–67)] (H-VDIHVWSGV-OH)
IC50 [1]: 5.25 µM

CC[C@H](C)[C@H](NC(=O)[C@H](CC(=O)O)NC(=O)[C@@H](NC(=O)[C@@H](N)CCCNC(=N)N)C(C)C)C(=O)N[C@@H](Cc1c[nH]cn1)C(=O)N[C@H](C(=O)N[C@@H](Cc1c[nH]c2ccccc12)C(=O)N[C@@H](CC(=O)O)C(=O)NCC(=O)N[C@H](C(=O)O)C(C)C)C(C)C [PIP (58–67)] (H-RVDIHVWDGV-OH; N-terminus and C-terminus assumed)
IC50 [1]: 3.67 µM
inhibition at 5 µM: 59.5%

CC[C@H](C)[C@H](NC(=O)[C@H](CC(=O)O)NC(=O)[C@@H](N)C(C)C)C(=O)N[C@@H](Cc1cnc[nH]1)C(=O)N[C@H](C(=O)N[C@@H](Cc1c[nH]c2ccccc12)C(=O)N[C@@H](CC(=O)O)C(=O)NCC(=O)N[C@H](C(=O)N[C@H](C(=O)N[C@@H](CC(=O)O)C(=O)N[C@H](C(=O)N[C@@H](Cc1cnc[nH]1)C(=O)N[C@H](C(=O)N[C@@H](Cc1c[nH]c2ccccc12)C(=O)N[C@@H](CC(=O)O)C(=O)NCC(=O)N[C@H](C(=O)O)C(C)C)C(C)C)[C@@H](C)CC)C(C)C)C(C)C)C(C)C [PIP (59–67) dimer, VDIHVWDGV VDIHVWDGV] (H-VDIHVWDGVVDIHVWDGV-OH)
IC50 [2]: 1.19 µM

CC[C@H](C)[C@H](NC(=O)[C@H](CC(=O)O)NC(=O)[C@@H](N)C(C)C)C(=O)N[C@@H](Cc1c[nH]cn1)C(=O)N[C@H](C(=O)N[C@@H](Cc1c[nH]c2ccccc12)C(=O)N[C@@H](CC(=O)O)C(=O)NCC(=O)N[C@H](C(=O)O)C(C)C)C(C)C [PIP (59–67)] (H-VDIHVWDGV-OH; N-terminus and C-terminus assumed)
IC50 [2]: 3.8 µM

CC[C@H](C)[C@H](NC(=O)[C@@H](N)CC(=O)O)C(=O)N[C@@H](Cc1c[nH]cn1)C(=O)N[C@H](C(=O)N[C@@H](Cc1c[nH]c2ccccc12)C(=O)N[C@@H](CC(=O)O)C(=O)NCC(=O)N[C@H](C(=O)O)C(C)C)C(C)C [PIP (60–67)] (H-DIHVWDGV-OH; N-terminus and C-terminus assumed)
IC50 [1]: 5.75 µM
inhibition at 5 µM: 45.9%

DIHVWDG [PIP (60–66)]
Mean % Inhibition: n.s.

GRVDIHVWDGV [PIP (57–67)]
Mean % Inhibition: 14.22%

HVWDG [PIP (62–66)]
Mean % Inhibition: n.s.

IHVWDG [PIP (61–66)]
Mean % Inhibition: n.s.

IHVWDGV [PIP (61–67)]
Mean % Inhibition: n.s.

LGRVDIHVWDGV [PIP (56–67)]
Mean % Inhibition: 34.21%
